Laboratory results as given in patent US5484940A, “Substituted 3-indolyl-5-pyrazolone compounds” (priority 1994, dated 1996).

What was measured:
Ultraviolet absorption = type: physicochemical; details: 0.1 mg/mL in methanol, 1 cm quartz cuvette
Procedure: The ultraviolet (UV) absorption properties of two representative substituted 3-indolyl-5-pyrazolones were evaluated and compared to indomethacin [1-(4-chlorobenzoyl)-5-methoxy-2-methyl-^1 H-indole-3-acetic acid], a compound known to absorb UV light (See page 4855 of the Merck Index, 10th Edition, Windholz, et al. Editor (1983)). Specifically, 0.1 mg/mL of 3-indolyl-5-pyrazolone (Ex. 9 or 33) or indomethacin in methanol was added to a quartz cuvette (1 cm) and the UV absorption of this solution was then measured at a wavelength of from 200 nm to 800 nm (Examples 9 and 33) and from 190 nm to 800 nm.

[1] = system: β-amyloid peptide production; assay: Cellular screen for inhibitors of β-amyloid production (ELISA, 293 751 SWE cells); type: cell-based, human; details: 2 h pretreatment + 2 h, normalized for cytotoxicity (MTT), concentration not given
Summary of the method: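 293 751 SWE cells (K293 stably expressing APP751 Swedish mutant) pretreated 2 h with compound, then fresh compound-containing medium for 2 h more at 37 °C. Secreted β-amyloid in conditioned medium quantified by sandwich ELISA (capture 266 anti-Aβ13-28, labelled 6C6 anti-Aβ1-16) against a standard curve as ng/mL; mean ± SD of ≥6 replicates.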

293 751 SWE cells = assay: Cytotoxicity (MTT) in 293 751 SWE cells; type: cell-based, human; details: concentration not given
Summary of the method: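 Used HEK293 cells stably expressing APP751 carrying the Swedish double mutation (K651N/M652L), plated at 1.5-2.5×10^4 cells/well in DMEM + 10% FBS. MTT was added to a final 1 mg/mL for 1 h at 37 °C, then lysed in SDS/DMF (pH 4.7) overnight. Viability was read as OD562 − OD650.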

5-lipoxygenase = molecular target: T1, 5-lipoxygenase (Rattus norvegicus, UniProt P12527); assay: 5-Lipoxygenase inhibition (5-HETE radioimmunoassay); type: biochemical; details: crude enzyme from RBL-1 cells, read-out: Percent Inhibition (5-lipoxygenase)
T1 construct: crude 5-lipoxygenase enzyme from rat basophilic leukemia cells (RBL-1); endogenous in cells; host or cells: RBL-1 (rat basophilic leukemia cells), crude enzyme
T1 sequence (P12527 1-673): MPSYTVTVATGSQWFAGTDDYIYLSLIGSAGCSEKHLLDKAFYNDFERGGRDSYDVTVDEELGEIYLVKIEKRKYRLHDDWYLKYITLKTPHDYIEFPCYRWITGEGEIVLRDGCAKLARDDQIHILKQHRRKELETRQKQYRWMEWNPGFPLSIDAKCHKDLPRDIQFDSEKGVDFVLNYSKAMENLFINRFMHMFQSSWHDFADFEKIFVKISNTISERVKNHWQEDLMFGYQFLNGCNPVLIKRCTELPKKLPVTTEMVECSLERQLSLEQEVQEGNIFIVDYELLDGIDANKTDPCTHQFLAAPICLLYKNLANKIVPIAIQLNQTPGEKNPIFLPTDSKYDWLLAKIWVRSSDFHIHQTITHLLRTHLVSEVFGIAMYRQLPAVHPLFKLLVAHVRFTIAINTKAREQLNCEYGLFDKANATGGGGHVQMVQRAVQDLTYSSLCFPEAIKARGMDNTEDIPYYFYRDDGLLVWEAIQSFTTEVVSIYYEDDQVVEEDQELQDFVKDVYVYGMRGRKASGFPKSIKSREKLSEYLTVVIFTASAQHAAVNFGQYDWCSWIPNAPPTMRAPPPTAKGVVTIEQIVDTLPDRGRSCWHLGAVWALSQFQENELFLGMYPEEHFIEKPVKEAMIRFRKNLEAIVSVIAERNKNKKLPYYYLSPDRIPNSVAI
Procedure: 5-Lipoxygenase catalyzes the oxidative metabolism of arachidonic acid to 5-hydroperoxyeicosatetraenoid acid ([…]), the initial reaction leading to the formation of the leukotrienes^18. Accordingly, compounds inhibiting 5-lipoxygenase activity are art recognized to have anti-inflammatory properties.
The ability of test compounds to inhibit 5-lipoxygenase activity was determined in assays^19 using crude 5-lipoxygenase enzyme from rat basophilic leukemia cells (RBL-1). Test compounds are pre-incubated with the enzyme for 5 minutes at room temperature and the reaction is initiated by addition of substrate (arachidonic acid). Following an 8 minute incubation at room temperature, the reaction is terminated by addition of citric acid, and levels of 5-HETE determined by 5-HETE radioimmunoassay.

human cortical neurons = assay: Inhibition of toxicity of β-amyloid peptide to human neuronal cells (alamarBlue); type: cell-based; details: 50 μM β-amyloid peptide, 2-3 days; on average where more than one duplicate experiment; compound concentration not stated
Procedure: (§1) The purpose of this test is to determine the effect of 3-indolyl-5-pyrazolone compounds on the toxicity of β-amyloid peptide to neuronal cells.
Primary Human Cortical Cell Culture
Primary human cortical cultures were prepared using a modification of the procedure described by Seubert, et al.^21 Following filtration through Nitex nylon screens, cortical tissue was resuspended in a trypsin/EDTA solution (0.05% trypsin+0.53 mM EDTA in HBSS; GIBCO Laboratories, Grand Island, N.Y., USA) and kept at 37° C. for 20 minutes. The trypsin was then inactivated by resuspending the cells in serum-containing medium (MEM/FBS: Modified Eagles' Medium (MEM) containing 1% glucose, 1 mM sodium pyruvate, 1 mM glutamine, and supplemented with 10% fetal bovine serum (GIBCO). Cells were then pelleted by centrifugation and resuspended in a chemically-defined medium (MEM/B27: MEM containing B27 supplement in place of FBS; GIBCO). Polyethyleneimine (PEI; Sigma Chemical Company, St. Louis, Mo., USA)-coated 6.4 mm (96-well) dishes were rinsed once with MEM/FBS, and then seeded at 0.75 to 1.25×10^5 cells per well in 0.1 mL MEM/B27. Cultures were maintained in a H2 O-saturated incubator with an atmosphere of 95% air/5% CO 2 at 37° C. The culture medium was exchanged twice weekly. Cell viability was visually assessed by phase contrast microscopy and quantified by measuring the reduction of alamarBlue™ (Alamar Biosciences, Inc., Sacramento, Calif., USA).
(§2) β-amyloid peptide stock solutions were prepared as 1 mM stocks in sterile, doubly distilled water immediately prior to addition to cultures. Rat cortical neurons were exposed to β-amyloid peptide by removing the culture medium and replacing it with DMEM/N2 (GIBCO Laboratories,Grand Island, N.Y., USA) containing 10 to 20 μM β-amyloid peptide. Human cortical neurons were exposed to test compound plus β-amyloid peptide by removing the culture medium and replacing it with MEM containing 50 μM β-amyloid peptide. Cultures were maintained for 2-3 days before neuronal survival was quantified using alamarBlue™.
(§3) The alamarBlue™ assay incorporates a fluorometric/colorimetric metabolic indicator (Alamar Biosciences, Inc. Sacramento, Calif., USA). Viable cells convert alamarBlue™ from an oxidized (non-fluorescent, blue) form to a reduced (fluorescent, red) form. Assays were preformed by replacing the culture media with a 10% alamarBlue™ solution in DMEM (rat cortical cultures) or MEM (human cortical cultures).

rat cortical neurons = assay: Inhibition of toxicity of β-amyloid peptide to rat neuronal cells (alamarBlue); type: cell-based; details: 10 to 20 μM β-amyloid peptide, 2-3 days; on average where more than one duplicate experiment; compound concentration not stated
Procedure: as §1
Primary rat cortical cultures were established from 18 day rat fetuses. Cortical tissue was dissociated by incubation in a trypsin/EDTA solution (0.05% trypsin+0.53 mM EDTA in HBSS; GIBCO Laboratories, Grand Island, N.Y., USA) for 20 minutes at 37° C. The trypsin was then inactivated by resuspending the cells in serum-containing medium (DMEM/FBS): Dulbecco's Modified Eagles' Medium (DMEM) containing 4.5 g/L glucose, 1 mM sodium pyruvate, 1 mM glutamine, 100 Units/mL penicillin, 100 μg/mL streptomycin, and supplemented with 10% heat-inactivated fetal bovine serum (GIBCO Laboratories, Grand Island, N.Y., USA). Cells were then pelleted by centrifugation and resuspended in a chemically-defined medium (DMEM/B27: DMEM containing B27 supplement; GIBCO Laboratories, Grand Island, N.Y., USA) in place of FBS. Polyethyleneimine (PEI; Sigma Chemical Company, St. Louis, Mo., USA)-coated 6.4 mm (96-well) dishes were timed once with DMEM/FBS, and then seeded at 0.75 to 1.25×10^5 cells per well in 0.1 mL DMEM/B27. Cultures were maintained in a H2 O-saturated incubator with an atmosphere of 90% air/10% CO2 at 37° C. Cell viability was visually assessed by phase contrast microscopy and quantified by measuring the reduction of alamarBlue™ (Alamar biosciences, Inc., Sacramento, Calif., USA) as described below. Serum replacement with B27 supplement yields nearly pure neuronal cultures as judged by immunocytochemistry for glial fibrillary acidic protein and neuron-specific enolase (Brewer, et al.^20)
as §2, §3

For COc1ccc2c(c1)c(CC1=NN(C3CCCCC3)C(=O)C1)c(C)n2C(=O)c1ccc(Cl)cc1 [Example 9, 3-[1-(4-chlorobenzoyl)-5-methoxy-2-methyl-3-indolylmethyl]-1-cyclohexyl-5-pyrazolone], which “Abs (at λmax)” value (Ultraviolet absorption) is on record?
Its value is 2.3299.

And the “E = Extinction coefficient” value (Ultraviolet absorption)?
Its value is 23.29 AU/mg/mL/cm.

And the λmax (Ultraviolet absorption)?
Its λmax is 251 nm.

And the “λother (shoulder)” value (Ultraviolet absorption)?
Its value is 318 nm.

And the “reduction of β-amyloid peptide production as compared to control” value (shortened to “reduction”) [1]?
Its value is “at least 20%”.

And the “cytotoxic effect on the 293 751 SWE cells” value (“cytotoxic effect” for short) (293 751 SWE cells)?
Its value is “did not have a significant cytotoxic effect”.

What about the inhibition at 6 µM (5-lipoxygenase; 6 μM compound) of the same molecule?
The inhibition at 6 µM was 75%.

Which “reduction” value [1] does the source give for COc1ccc2c(c1)c(CC1=NN(C(C)(C)C)C(=O)C1)c(C)n2C(=O)c1ccc(Cl)cc1 [Example 14, 3-[1-(4-chlorobenzoyl)-5-methoxy-2-methyl-3-indolylmethyl]-1-t-butyl-5-pyrazolone] here?
The value was “at least 20%”.

And the “cytotoxic effect” value (293 751 SWE cells)?
The value was “did not have a significant cytotoxic effect”.

What about the inhibition at 7.5 µM (5-lipoxygenase; 7.5 μM compound) of the same molecule?
Its inhibition at 7.5 µM is 48%.

For COc1ccc2c(c1)c(CC1=NN(c3ccc(Cl)c(Cl)c3)C(=O)C1)c(C)n2C(=O)c1ccc(Cl)cc1 [Example 33, 3-[1-(4-chlorobenzoyl)-5-methoxy-2-methyl-3-indolylmethyl]-1-(3,4-dichlorophenyl)-5-pyrazolone], which “Abs (at λmax)” value (Ultraviolet absorption) is on record?
The value was 2.3458.

And the “E = Extinction coefficient” value (Ultraviolet absorption)?
The value was 23.46 AU/mg/mL/cm.

What about the λmax (Ultraviolet absorption) of the same molecule?
The λmax was 254 nm.

What about the “λother (shoulder)” value (Ultraviolet absorption) of the same molecule?
The value was 318 nm.

What about the “reduction” value [1] of the same molecule?
Its value is “at least 20%”.

And the “cytotoxic effect” value (293 751 SWE cells)?
Its value is “did not have a significant cytotoxic effect”.

What about the “inhibition of the toxicity of β-amyloid peptide to human neuronal cells” value (human cortical neurons) of the same molecule?
The value was “at least 25%”.

And the “inhibition of the toxicity of β-amyloid peptide to rat neuronal cells” value (rat cortical neurons)?
The value was “at least 10%”.
